Measured values from patent US5272141A, “Contraceptive and menstrual cycle controlling drug having oncostatic therapeutic properties for treatment of mammary tumors and melanomas, and method therefor” (priority 1990, dated 1993).
“Also recorded” adds a separate entry of the source. Read-outs that look alike come from different tables or passages of the source.

Columns and labels:
[1] = test system: preventing undesired pregnancies; conditions: cited from earlier work
[2] = test system: cell cultures, neoplasms and hyperplasias; conditions: laboratory animals; cited from earlier work
[3] = test system: cell cultures, neoplasms and hyperplasias; conditions: humans; cited from earlier work
[4] = test system: primary cultures of metastatic nodules of a human malignant melanoma; assay: Growth inhibition in primary cultures of metastatic nodules of a human malignant melanoma; format: cell-based; conditions: in vitro
Excerpt: (§1) In our studies and experiments we have obtained an inhibition greater than 75% of the growth in primary cultures of metastatic nodules of a human malignant melanoma upon treatment in "vitro" with 2-iodomelatonin and 2-bromomelatonin and in primary cultures from different human melanomas, a growth inhibition has been obtained in 6 of 11 patients studied.

bladder carcinoma RT-112 = assay: Growth inhibition of bladder carcinoma RT-112; format: cell-based, human; conditions: in vitro
female patients = assay: Clinical experimentation of associations used as contraceptives in eighty two female patients; format: in vivo, human; conditions: doses lower than those of melatonin
Method: With respect to the clinic experimentation, preliminary tests has been carried out on eighty two female patients, having an age between 18 and 46 years, with the following associations of the disclosed substances:
a) melatonin and norethisterone with doses per day of respectively 100-200 mg and 0.30-0.50 mg:
b) melatonin and 1-norgestrel with doses per day of respectively 100-200 mg and 0.08-0.16 mg;
c) 2-iodomelationin and norethisterone with doses per day of respectively 20-40 mg and 0.30-0.50 mg; mg;
d) 2-iodomelatonin and norgestrel with doses per day of respectively 20-40 mg and 0.35-0.80 mg;
e) 2-iodomelatonin and 1-norgestrel with doses per day of respectively 20-40 mg and 0.08-0.16 mg;
f) 2-bromomelatonin and norethisterone with doses per day of respectively 25-50 mg and 0.30-0.50 mg;
g) 2-bromomelatonin and norgestrel with doses per day of respectively 20-40 mg and 0.35-0.80.
h) 2-bomromelatonin and 1-norgestrel with doses pro die of respectively 20-40 mg and 0.08-0.16 mg.

[5] = test system: human neoplastic cell lines; assay: Oncostatic effects in vitro; format: cell-based
[6] = test system: ovarian cell line SK-OV-3; assay: Growth inhibition of ovarian cell line SK-OV-3; format: cell-based, human; conditions: in vitro
[7] = test system: cellular membranes of melanoma; assay: Binding to cellular membranes of melanoma
Acute toxicity in rats = conditions: rat, in vivo; for LD50: po, per os, read-out: DL50 (the source's name)
Method: (§2) In the specific case of melatonin, acute
1) Rats, intraperitoneally
2) Rats, per os DL50 = greater than
(§3) (observation period 14 days)
the symbol DL50 means the amount of material which kills 50% of the
(§4) With respect to the toxicity of 2-iodomelatonin and 2-bromomelatonin, the acute toxicity tests have been carried out:
1) in rats per os: DL50 greater than 200 mg/Kg

tumors [8] = assay: Oncostatic effects in vivo
MS-2 fibrosarcoma cells = assay: Lung metastasis and local tumor growth in mice implanted with MS-2 fibrosarcoma cells; format: in vivo
Excerpt: (§5) The results obtained in our laboratories, however, have demonstered that 2-iodomelatonin and 2-bromomelatonin cause a reduction both in the number of the lung metastasis and of the local growth of tumors in mice inplanted with B-16 melanoma or MS-2 fibrosarcoma cells.

Acute toxicity in mice = conditions: mouse, in vivo, read-out: DL50 (the source's name)
Method: as §4
2) in mice per os and intraperitoneally: DL50 greater than 100 mg/Kg.

[9] = Hematic, biochemical, electrophoretic, organ, bone marrow and histological toxicity tests; conditions: in vivo
Excerpt: The haematochemical, electrophoretic tests, and the tests for determining the status and weight of organs, bone marrow, and the hystological tests have not shown any particular toxicity and, based on these observations, which show the low toxicity of the individual compounds and associations, a favourable opinion has been released about the starting of the clinical experimentation.

neoplastic tissues = assay: Binding in neoplastic tissues; conditions: compared with normal tissues
[10] = test system: cellular membranes of mammary gland cancer; assay: Binding to cellular membranes of mammary gland cancer
tumors [11] = assay: Long term treatment: arrest and partial regression of tumors in human; format: in vivo; conditions: in some cases
[12] = test system: mammary carcinoma MCF-7 cells; assay: Growth inhibition of mammary carcinoma MCF-7 cells; format: cell-based, human; conditions: in vitro
normal tissues = assay: Binding in normal tissues
ovarian cell line JA = assay: Growth inhibition of ovarian cell line JA; format: cell-based, human; conditions: in vitro
[13] = Biological activity in vivo and in vitro in respect to melatonin; conditions: both in vivo and in vitro
[14] = test system: stimulated dopamine release in the retina; conditions: cited from earlier work
[15] = test system: cellular membranes of cellular lines infected with oncogenic viruses; assay: Binding to cellular membranes of cellular lines infected with oncogenic viruses
B-16 melanoma = assay: Lung metastasis and local tumor growth in mice implanted with B-16 melanoma; format: in vivo
Excerpt: as §5

[16] = test system: primary cultures from different human melanomas; assay: Growth inhibition in primary cultures from different human melanomas; format: cell-based
Excerpt: as §1

estrogen receptor = assay: Estrogen receptor number in MCF-7; format: cell-based, human
in vivo = assay: in vivo; set-up: species or system rabbits; conditions: rabbit, iv
Excerpt: as §2
3) rabbits, intravenously
as §3
(§6) the symbol DL50 means the amount of material which kills 50% of the […]

human contraception = conditions: comparatively high doses; cited from earlier work
[17] = Sub-acute toxicity in rats; conditions: rat, in vivo, sc, subcutaneously, observation period 25 days, read-out: DL50
Excerpt: and the sub-acute toxicity in:
(observation period 25 days).
as §6

SMILES	inhibition of the growth [4]	inhibition of the growth (bladder carcinoma RT-112)	dose reduction relative to melatonin (times lower) (female patients)	oncostatic effects [5]	inhibition of the growth [6]	binding to cellular membranes [7]	LD50 (Acute toxicity in rats) [mg/kg]	oncostatic effects (tumors [8])	local growth of tumors (MS-2 fibrosarcoma cells)	number of the lung metastasis (MS-2 fibrosarcoma cells)	LD50 (Acute toxicity in mice; ip, intraperitoneally) [mg/kg]	LD50 (Acute toxicity in mice; po, per os) [mg/kg]	toxicity in hematic, biochemical, electrophoretic, organ, bone marrow and histological tests [9]	binding affinity (neoplastic tissues)	binding to cellular membranes [10]	tumor arrest and regression (tumors [11])	inhibition of the growth [12]	binding (normal tissues)	inhibition of the growth (ovarian cell line JA)	inhibition of stimulated dopamine release [14]	further results
C#C[C@]1(O)CC[C@H]2[C@@H]3CCC4=CC(=O)CC[C@@H]4[C@H]3CC[C@@]21CC [1-norgestrel]	–	–	–	–	–	–	–	–	–	–	–	–	–	–	–	–	–	–	–	–	contraceptive results compared with norethisterone mini-pill ([1]; reduced doses (0.08-0.16 mg)): better results
COc1ccc2[nH]c([125I])c(CCNC(C)=O)c2c1 [2-(125I)-iodomelatonin]	–	–	–	–	–	–	–	–	–	–	–	–	–	–	–	–	–	–	–	–	binding [2]: specific and saturable binding; binding [3]: specific and saturable binding
COc1ccc2[nH]c(Br)c(CCNC(C)=O)c2c1 [2-bromomelatonin, N-acetyl-2-bromo-5-methoxytriptamine]	greater than 75%	dose-dependant inhibition of the growth	five to ten	Powerful oncostatic effects	dose-dependant inhibition of the growth	bind to the cellular membranes	> 200	Powerful oncostatic effects	reduction	reduction	> 100	> 100	have not shown any particularly toxicity	much lower	bind to the cellular membranes	arrest and partial regression of tumors	dose-dependant inhibition of the growth; also recorded: inhibited the growth of the cellular lines MCF-7 in a dose dependant manner	high affinity, saturable and specific	dose-dependant inhibition of the growth	potent inhibitors	activity relative to that of melatonin (times higher) [13]: seven to ten; binding to cellular membranes [15]: bind to the cellular membranes; local growth of tumors (B-16 melanoma): reduction; number of the lung metastasis (B-16 melanoma): reduction; growth inhibition obtained (patients responding of patients studied) [16]: 6 of 11
COc1ccc2[nH]c(I)c(CCNC(C)=O)c2c1 [2-iodomelatonin, N-acetyl-2-iodo-5-methoxytriptamine]	greater than 75%	dose-dependant inhibition of the growth	five to ten	Powerful oncostatic effects	dose-dependant inhibition of the growth	bind to the cellular membranes	> 200	Powerful oncostatic effects	reduction	reduction	> 100	> 100	have not shown any particularly toxicity	much lower	bind to the cellular membranes	arrest and partial regression of tumors	dose-dependant inhibition of the growth; also recorded: inhibited the growth of the cellular lines MCF-7 in a dose dependant manner	high affinity, saturable and specific	dose-dependant inhibition of the growth	potent inhibitors	activity relative to that of melatonin (times higher) [13]: seven to ten; binding to cellular membranes [15]: bind to the cellular membranes; local growth of tumors (B-16 melanoma): reduction; number of the lung metastasis (B-16 melanoma): reduction; growth inhibition obtained (patients responding of patients studied) [16]: 6 of 11
C#C[C@]1(O)CC[C@H]2[C@@H]3CCC4=CC(=O)CC[C@@H]4[C@H]3CC[C@@]21C [Norethisterone, norethisterone]	–	–	–	–	–	–	–	–	–	–	–	–	–	–	–	–	–	–	–	–	undesired pregnancies ([1]; mini-pill, alone): about 2.35%
COc1ccc2[nH]cc(CCNC(C)=O)c2c1 [melatonin, reference compound]	–	–	–	–	–	–	–	–	–	–	–	–	have not shown any particularly toxicity	much lower	–	arrest and partial regression of tumors	–	high affinity, saturable and specific	–	potent inhibitors of stimulated dopamine release in this organ, very much like melatonin	LD50 at 336 h (Acute toxicity in rats; ip, intraperitoneally, observation period 14 days, read-out: DL50): 462 mg/kg; LD50 (Acute toxicity in rats; observation period 14 days): > 800 mg/kg; estrogen receptor number (estrogen receptor): temporarily caused an increase of the estrogen receptor number; LD50 at 336 h (in vivo): 394 mg/kg; dose required to express contraceptive action (human contraception): 100 to 200 mg; LD50 at 600 h [17]: > 192 mg/kg
